From PubChem BioAssay AID330 (DTP/NCI, 2004)
Where “and” joins values, the source holds several entries; their conditions need not be identical. Equal entries are not always repeated. Toxic doses and inconclusive results are not listed.

Test system: P388 leukemia ip, CD2F1 mice, survival T/C
Assay: NCI In Vivo Anticancer Drug Screen. Data for tumor model P388 Leukemia (intraperitoneal) in CD2F1 (CDF1) mice
Conditions: endpoint: median survival time, higher = longer survival
Summary of the method: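 Mice carrying the transplanted tumor received test compound or vehicle. Survival was recorded in each group, and the value is the treated-group measurement divided by that of the vehicle-treated control group.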

[1] = dose: 50.0 mg/kg/injection, schedule: Q01DX009 (ip), vehicle: Klucel (hydroxypropylcellulose) (HPC)
[2] = dose: 100.0 mg/kg/injection, schedule: Q01DX009 (ip), vehicle: Klucel (hydroxypropylcellulose) (HPC)
[3] = dose: 50.0 mg/kg/injection, schedule: Q01DX005 (ip), vehicle: Klucel (hydroxypropylcellulose) (HPC)
[4] = dose: 100.0 mg/kg/injection, schedule: Q01DX005 (ip), vehicle: Klucel (hydroxypropylcellulose) (HPC)
[5] = dose: 200.0 mg/kg/injection, schedule: Q01DX005 (ip), vehicle: Klucel (hydroxypropylcellulose) (HPC)
[6] = dose: 50.0 mg/kg/injection, schedule: Q01DX009 (ip), vehicle: suspension in saline
[7] = dose: 100.0 mg/kg/injection, schedule: Q01DX009 (ip), vehicle: suspension in saline
[8] = dose: 200.0 mg/kg/injection, schedule: Q01DX009 (ip), vehicle: suspension in saline
[9] = dose: 60.0 mg/kg/injection, schedule: Q01DX005 (ip), vehicle: saline with Tween-80

SMILES: O=[N+]([O-])c1cccc(C2CC(c3ccccc3)=Nc3ccccc3S2)c1 (stereo not given)
- T/C [1]: 107 % of control
- T/C [2]: 100 % of control

SMILES: CCCC(=O)O
- T/C (dose: 50.0 mg/kg/injection, schedule: Q01DX009 (ip), vehicle: saline): 93 % of control
- T/C (dose: 100.0 mg/kg/injection, schedule: Q01DX009 (ip), vehicle: saline): 91 % of control
- T/C (dose: 200.0 mg/kg/injection, schedule: Q01DX009 (ip), vehicle: saline): 90 % of control

SMILES: COc1c(O)ccc(C2=Cc3ccc(O)cc3OC2)c1OC
- T/C (dose: 25.0 mg/kg/injection, schedule: Q01DX005 (ip), vehicle: Klucel (hydroxypropylcellulose) (HPC)): 99 % of control
- T/C [3]: 98 % of control
- T/C [4]: 109 % of control
- T/C [5]: 106 % of control

SMILES: O=C(O)c1cc(-c2ccccc2Cl)nc2cc3ccccc3cc12
- T/C [1]: 111 % of control
- T/C [2]: 101 % of control
- T/C (dose: 200.0 mg/kg/injection, schedule: Q01DX009 (ip), vehicle: Klucel (hydroxypropylcellulose) (HPC)): 101 % of control

SMILES: NC(CCCCNC(=O)OCCCCCOC(=O)NCCCCC(N)C(=O)O)C(=O)O (stereo not given)
- T/C [6]: 95 % of control
- T/C [7]: 106 % of control
- T/C [8]: 104 % of control

SMILES: CN(O)/C=C1\C(=O)C=Cc2ccccc21
- T/C [3]: 90 % of control
- T/C [4]: 94 % of control
- T/C [5]: 90 % of control

SMILES: COC(=O)c1cc2cc3ccccc3cc2cc1C(=O)OC
- T/C (dose: 15.0 mg/kg/injection, schedule: Q01DX005 (ip), vehicle: saline with Tween-80): 100 % of control
- T/C (dose: 30.0 mg/kg/injection, schedule: Q01DX005 (ip), vehicle: saline with Tween-80): 101 % of control
- T/C [9]: 102 % of control

SMILES: O=C1C2=C(C(=O)C3=C1C1C=CC3C1)C1C=CC2C1
- T/C (dose: 100.0 mg/kg/injection, schedule: Q04DX003 (ip), vehicle: Klucel (hydroxypropylcellulose) (HPC)): 118 % of control
- T/C (dose: 200.0 mg/kg/injection, schedule: Q04DX003 (ip), vehicle: Klucel (hydroxypropylcellulose) (HPC)): 102 % of control
- T/C (dose: 400.0 mg/kg/injection, schedule: Q04DX003 (ip), vehicle: Klucel (hydroxypropylcellulose) (HPC)): 96 % of control

SMILES: Clc1nc2nc(C3CC3)[nH]c2nc1Cl
- T/C (dose: 100.0 mg/kg/injection, schedule: Q04DX003 (ip), vehicle: saline with Tween-80): 100 % of control
- T/C (dose: 200.0 mg/kg/injection, schedule: Q04DX003 (ip), vehicle: saline with Tween-80): 100 % of control
- T/C (dose: 400.0 mg/kg/injection, schedule: Q04DX003 (ip), vehicle: saline with Tween-80): 100 % of control

SMILES: c1cc(C2=NCCN2)ccc1Nc1ccc(-c2cc3ccc(C4=NCCN4)cc3[nH]2)cc1
- T/C (dose: 3.75 mg/kg/injection, schedule: Q01DX005 (ip), vehicle: Klucel (hydroxypropylcellulose) (HPC)): 150 % of control and 165 % of control
- T/C (dose: 7.5 mg/kg/injection, schedule: Q01DX005 (ip), vehicle: Klucel (hydroxypropylcellulose) (HPC)): 154 % of control and 177 % of control

SMILES: COC1=CC(=O)OC1n1ccc(OC)nc1=O (stereo not given)
- T/C [3]: 100 % of control
- T/C [4]: 95 % of control
- T/C [5]: 95 % of control

SMILES: CCOC(=O)C1=C(Nc2ccc(F)cc2)C(=O)N(CC)C1
- T/C [9]: 100 % of control
- T/C (dose: 120.0 mg/kg/injection, schedule: Q01DX005 (ip), vehicle: saline with Tween-80): 102 % of control
- T/C (dose: 240.0 mg/kg/injection, schedule: Q01DX005 (ip), vehicle: saline with Tween-80): 93 % of control

SMILES: CC1=CCC(=O)O1
- T/C [6]: 100 % of control
- T/C [7]: 99 % of control and 88 % of control
- T/C [8]: 101 % of control and 87 % of control
- T/C (dose: 400.0 mg/kg/injection, schedule: Q01DX009 (ip), vehicle: suspension in saline): 98 % of control and 101 % of control

SMILES: CCc1nc(N)nc(N)c1-c1ccc2nnn(O)c2c1
- T/C [3]: 98 % of control
- T/C [4]: 96 % of control
- T/C [5]: 105 % of control

SMILES: NC(Cc1ccccc1[N+](=O)[O-])C(=O)O (stereo not given)
- T/C (dose: 50.0 mg/kg/injection, schedule: Q01DX009 (ip), vehicle: saline with Tween-80): 92 % of control
- T/C (dose: 100.0 mg/kg/injection, schedule: Q01DX009 (ip), vehicle: saline with Tween-80): 93 % of control
- T/C (dose: 200.0 mg/kg/injection, schedule: Q01DX009 (ip), vehicle: saline with Tween-80): 91 % of control
